Assay in all cases: relative viability (nuclei count vs DMSO), 5 days (fraction); higher = more cells survive
Compound in the assay “MK-8033 + Pictilisib”: Cn1cc(-c2cnc3ccc4ccc(CS(=O)(=O)NCc5ccccn5)cc4c(=O)c3c2)cn1 [MK-8033] + CS(=O)(=O)N1CCN(Cc2cc3nc(-c4cccc5[nH]ncc45)nc(N4CCOCC4)c3s2)CC1 [Pictilisib] (partner 1 µM)
Put shortly: (§1)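 Relative viability divides the nuclei count in treated wells by that in vehicle wells. Lung cancer cell lines were seeded in 1536-well plates, dosed by pin tool the next day, and fixed and stained after 5 days in one step with final 0.05% Triton X-100, 1% formaldehyde and 1 ug/ml Hoechst. Dosing was a single drug or a fixed anchor-drug dose plus five library-drug doses (not always all listed) in √10 steps, and values are medians of duplicate plates imaged at 4×.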

Compound in the assay “Irinotecan + OSI-027”: CCc1c2c(nc3ccc(OC(=O)N4CCC(N5CCCCC5)CC4)cc13)-c1cc3c(c(=O)n1C2)COC(=O)[C@]3(O)CC [Irinotecan] + COc1cccc2cc(-c3nc([C@H]4CC[C@H](C(=O)O)CC4)n4ncnc(N)c34)[nH]c12 [OSI-027] (partner 0.5 µM)
Put shortly:
as §1

Compound in the assay “RU-SKI 43 + Tozasertib”: CC[C@@H](C)CNCC(=O)N1CCC2=C([C@@H]1COC3=CC=CC(=C3)C)C=CS2 [RU-SKI 43] + Cc1cc(Nc2cc(N3CCN(C)CC3)nc(Sc3ccc(NC(=O)C4CC4)cc3)n2)n[nH]1 [Tozasertib] (partner 0.1 µM)
The method, boiled down:
as §1

Compound in the assay “MK-8033 + Vorinostat”: Cn1cc(-c2cnc3ccc4ccc(CS(=O)(=O)NCc5ccccn5)cc4c(=O)c3c2)cn1 [MK-8033] + O=C(CCCCCCC(=O)Nc1ccccc1)NO [Vorinostat] (partner 1 µM)
The method, boiled down: as §1

Regarding NCI-H1944, the relative viability with MK-8033 + Pictilisib (first compound 0.02 µM) amounted to 0.35; with MK-8033 + Pictilisib (first compound 0.2 µM) it was 0.347; in the assay with MK-8033 + Pictilisib (first compound 0.6325 µM), 0.346; in the assay with MK-8033 + Pictilisib (first compound 2 µM) it was 0.34; with Irinotecan + OSI-027 (first compound 0.6325 µM), 0.22; with Irinotecan + OSI-027 (first compound 2 µM), 0.349. In addition, the relative viability with Irinotecan + OSI-027 (first compound 6.325 µM) turned out to be 0.165; in the assay with Irinotecan + OSI-027 (first compound 20 µM) it was 0.161; with RU-SKI 43 + Tozasertib (first compound 0.1 µM), 0.251; in the assay with RU-SKI 43 + Tozasertib (first compound 0.3162 µM) it was 0.27; in the assay with RU-SKI 43 + Tozasertib (first compound 1 µM) it was 0.257; with RU-SKI 43 + Tozasertib (first compound 3.162 µM), 0.251. In addition, the relative viability with RU-SKI 43 + Tozasertib (first compound 10 µM) turned out to be 0.23; with MK-8033 + Vorinostat (first compound 0.02 µM), 0.6; in the assay with MK-8033 + Vorinostat (first compound 0.06325 µM), 0.579; with MK-8033 + Vorinostat (first compound 0.2 µM) it was 0.625; with MK-8033 + Vorinostat (first compound 0.6325 µM), 0.59; in the assay with MK-8033 + Vorinostat (first compound 2 µM), 0.568.

As for NCI-H1975, the relative viability with MK-8033 + Pictilisib (first compound 0.02 µM) came to 0.302; with MK-8033 + Pictilisib (first compound 0.06325 µM), 0.266; in the assay with MK-8033 + Pictilisib (first compound 0.2 µM), 0.269; with MK-8033 + Pictilisib (first compound 0.6325 µM), 0.307; with MK-8033 + Pictilisib (first compound 2 µM), 0.315; with Irinotecan + OSI-027 (first compound 0.6325 µM), 0.558. Further, the relative viability with Irinotecan + OSI-027 (first compound 2 µM) was 0.694; with Irinotecan + OSI-027 (first compound 6.325 µM), 0.439; with Irinotecan + OSI-027 (first compound 20 µM), 0.137; with RU-SKI 43 + Tozasertib (first compound 0.1 µM), 0.755; in the assay with RU-SKI 43 + Tozasertib (first compound 0.3162 µM), 0.852; in the assay with RU-SKI 43 + Tozasertib (first compound 1 µM) it was 0.854. Further, the relative viability in the assay with RU-SKI 43 + Tozasertib (first compound 3.162 µM) stood at 0.712; with RU-SKI 43 + Tozasertib (first compound 10 µM), 0.574; with MK-8033 + Vorinostat (first compound 0.02 µM), 0.713; in the assay with MK-8033 + Vorinostat (first compound 0.06325 µM), 0.669; with MK-8033 + Vorinostat (first compound 0.2 µM), 0.634; in the assay with MK-8033 + Vorinostat (first compound 0.6325 µM), 0.695. Moreover, the relative viability in the assay with MK-8033 + Vorinostat (first compound 2 µM) was determined as 0.752.

For NCI-H1993, the relative viability with MK-8033 + Pictilisib (first compound 0.02 µM) was found to be 0.842; with MK-8033 + Pictilisib (first compound 0.06325 µM), 0.75; with MK-8033 + Pictilisib (first compound 0.2 µM) it was 0.669; with MK-8033 + Pictilisib (first compound 0.6325 µM), 1; with MK-8033 + Pictilisib (first compound 2 µM), 0.763; with Irinotecan + OSI-027 (first compound 0.6325 µM), 0.584. In addition, the relative viability in the assay with Irinotecan + OSI-027 (first compound 2 µM) was 0.491; in the assay with Irinotecan + OSI-027 (first compound 6.325 µM), 0.574; with Irinotecan + OSI-027 (first compound 20 µM), 0.587; in the assay with RU-SKI 43 + Tozasertib (first compound 0.1 µM), 0.566; with RU-SKI 43 + Tozasertib (first compound 0.3162 µM), 0.569; with RU-SKI 43 + Tozasertib (first compound 1 µM), 0.585. Further, the relative viability with RU-SKI 43 + Tozasertib (first compound 3.162 µM) was found to be 0.588; with RU-SKI 43 + Tozasertib (first compound 10 µM) it was 0.564; with MK-8033 + Vorinostat (first compound 0.02 µM), 0.688; in the assay with MK-8033 + Vorinostat (first compound 0.06325 µM), 0.644; with MK-8033 + Vorinostat (first compound 0.2 µM), 0.587; in the assay with MK-8033 + Vorinostat (first compound 0.6325 µM), 0.571. In addition, the relative viability in the assay with MK-8033 + Vorinostat (first compound 2 µM) is 0.638.

Consider NCI-H2009, for which the relative viability with MK-8033 + Pictilisib (first compound 0.02 µM) was found to be 0.833; with MK-8033 + Pictilisib (first compound 0.06325 µM) it was 0.716; with MK-8033 + Pictilisib (first compound 0.2 µM), 0.732; in the assay with MK-8033 + Pictilisib (first compound 0.6325 µM) it was 0.775; in the assay with MK-8033 + Pictilisib (first compound 2 µM), 0.771; with Irinotecan + OSI-027 (first compound 0.6325 µM) it was 0.491. Further, the relative viability in the assay with Irinotecan + OSI-027 (first compound 2 µM) was 0.508; in the assay with Irinotecan + OSI-027 (first compound 6.325 µM), 0.314; with Irinotecan + OSI-027 (first compound 20 µM) it was 0.124; in the assay with RU-SKI 43 + Tozasertib (first compound 0.1 µM), 0.725; in the assay with RU-SKI 43 + Tozasertib (first compound 0.3162 µM), 0.896; in the assay with RU-SKI 43 + Tozasertib (first compound 1 µM), 0.727. Further, the relative viability with RU-SKI 43 + Tozasertib (first compound 3.162 µM) was 0.64; in the assay with RU-SKI 43 + Tozasertib (first compound 10 µM), 0.504; with MK-8033 + Vorinostat (first compound 0.02 µM) it was 0.678; with MK-8033 + Vorinostat (first compound 0.06325 µM), 0.689; in the assay with MK-8033 + Vorinostat (first compound 0.2 µM) it was 0.776; with MK-8033 + Vorinostat (first compound 0.6325 µM) it was 0.733. Also, in the assay with MK-8033 + Vorinostat (first compound 2 µM), the relative viability is 0.676.

Consider NCI-H2023, for which the relative viability in the assay with MK-8033 + Pictilisib (first compound 0.02 µM) was 0.264; in the assay with MK-8033 + Pictilisib (first compound 0.06325 µM) it was 0.194; with MK-8033 + Pictilisib (first compound 0.2 µM), 0.186; in the assay with MK-8033 + Pictilisib (first compound 0.6325 µM), 0.219; in the assay with MK-8033 + Pictilisib (first compound 2 µM), 0.179; with Irinotecan + OSI-027 (first compound 0.6325 µM) it was 0.319. The relative viability with Irinotecan + OSI-027 (first compound 2 µM) was 0.377; with Irinotecan + OSI-027 (first compound 6.325 µM), 0.238; in the assay with Irinotecan + OSI-027 (first compound 20 µM), 0.0537; with RU-SKI 43 + Tozasertib (first compound 0.1 µM) it was 0.32; with RU-SKI 43 + Tozasertib (first compound 0.3162 µM) it was 0.438; in the assay with RU-SKI 43 + Tozasertib (first compound 1 µM), 0.516. Besides, the relative viability in the assay with RU-SKI 43 + Tozasertib (first compound 3.162 µM) was 0.424; with RU-SKI 43 + Tozasertib (first compound 10 µM), 0.218; in the assay with MK-8033 + Vorinostat (first compound 0.02 µM) it was 0.857; with MK-8033 + Vorinostat (first compound 0.06325 µM) it was 0.44; in the assay with MK-8033 + Vorinostat (first compound 0.2 µM), 0.583; with MK-8033 + Vorinostat (first compound 0.6325 µM), 0.515. In addition, the relative viability with MK-8033 + Vorinostat (first compound 2 µM) was 0.491.

As to NCI-H2085, the relative viability was 0.417 with MK-8033 + Pictilisib (first compound 0.02 µM); 0.369 with MK-8033 + Pictilisib (first compound 0.06325 µM); 0.532 with MK-8033 + Pictilisib (first compound 0.2 µM); 0.57 in the assay with MK-8033 + Pictilisib (first compound 0.6325 µM); 0.395 in the assay with MK-8033 + Pictilisib (first compound 2 µM); 0.435 in the assay with Irinotecan + OSI-027 (first compound 0.6325 µM). Moreover, the relative viability in the assay with Irinotecan + OSI-027 (first compound 2 µM) is 0.71; with Irinotecan + OSI-027 (first compound 6.325 µM), 0.568; with Irinotecan + OSI-027 (first compound 20 µM) it was 0.495; in the assay with RU-SKI 43 + Tozasertib (first compound 0.1 µM) it was 0.716; with RU-SKI 43 + Tozasertib (first compound 0.3162 µM), 0.71; in the assay with RU-SKI 43 + Tozasertib (first compound 1 µM) it was 0.854. Moreover, the relative viability turned out to be 0.743 in the assay with RU-SKI 43 + Tozasertib (first compound 3.162 µM); 0.671 with RU-SKI 43 + Tozasertib (first compound 10 µM); 0.744 with MK-8033 + Vorinostat (first compound 0.02 µM); 0.734 with MK-8033 + Vorinostat (first compound 0.06325 µM); 0.691 with MK-8033 + Vorinostat (first compound 0.2 µM); 0.835 in the assay with MK-8033 + Vorinostat (first compound 0.6325 µM). In addition, the relative viability in the assay with MK-8033 + Vorinostat (first compound 2 µM) was determined as 0.764.

With NCI-H2087, the relative viability in the assay with MK-8033 + Pictilisib (first compound 0.02 µM) was 0.912; with MK-8033 + Pictilisib (first compound 0.06325 µM), 0.814; with MK-8033 + Pictilisib (first compound 0.2 µM), 0.737; in the assay with MK-8033 + Pictilisib (first compound 0.6325 µM) it was 0.994; with MK-8033 + Pictilisib (first compound 2 µM), 0.692; in the assay with Irinotecan + OSI-027 (first compound 0.6325 µM), 0.239. Moreover, the relative viability worked out at 0.339 with Irinotecan + OSI-027 (first compound 2 µM); 0.157 with Irinotecan + OSI-027 (first compound 6.325 µM); 0.166 with Irinotecan + OSI-027 (first compound 20 µM); 0.264 with RU-SKI 43 + Tozasertib (first compound 0.1 µM); 0.233 in the assay with RU-SKI 43 + Tozasertib (first compound 0.3162 µM); 0.294 with RU-SKI 43 + Tozasertib (first compound 1 µM). Further, the relative viability with RU-SKI 43 + Tozasertib (first compound 3.162 µM) is 0.225; with RU-SKI 43 + Tozasertib (first compound 10 µM) it was 0.225; with MK-8033 + Vorinostat (first compound 0.02 µM), 0.788; with MK-8033 + Vorinostat (first compound 0.06325 µM), 0.368; in the assay with MK-8033 + Vorinostat (first compound 0.2 µM), 0.749; with MK-8033 + Vorinostat (first compound 0.6325 µM), 0.728. For the same cell line, the relative viability with MK-8033 + Vorinostat (first compound 2 µM) was found to be 0.692.

Consider NCI-H2126, for which the relative viability with MK-8033 + Pictilisib (first compound 0.02 µM) came to 0.491; with MK-8033 + Pictilisib (first compound 0.06325 µM), 0.393; with MK-8033 + Pictilisib (first compound 0.2 µM), 0.455; in the assay with MK-8033 + Pictilisib (first compound 0.6325 µM), 0.515; in the assay with MK-8033 + Pictilisib (first compound 2 µM), 0.491; with Irinotecan + OSI-027 (first compound 2 µM), 0.601. Further, the relative viability stood at 0.457 in the assay with Irinotecan + OSI-027 (first compound 6.325 µM); 0.427 with Irinotecan + OSI-027 (first compound 20 µM); 0.817 with RU-SKI 43 + Tozasertib (first compound 0.1 µM); 0.917 with RU-SKI 43 + Tozasertib (first compound 0.3162 µM); 0.962 in the assay with RU-SKI 43 + Tozasertib (first compound 1 µM); 0.854 in the assay with RU-SKI 43 + Tozasertib (first compound 3.162 µM). Further, the relative viability turned out to be 0.74 with RU-SKI 43 + Tozasertib (first compound 10 µM); 0.671 in the assay with MK-8033 + Vorinostat (first compound 0.02 µM); 0.554 in the assay with MK-8033 + Vorinostat (first compound 0.06325 µM); 0.72 with MK-8033 + Vorinostat (first compound 0.2 µM); 0.798 with MK-8033 + Vorinostat (first compound 0.6325 µM); 0.822 with MK-8033 + Vorinostat (first compound 2 µM).

Values taken from the supplement of paper PMC10307832.
